Measurements reported in ChEMBL document CHEMBL1151059, “Synthesis and x-ray structure of a potent superpositional analog of the enantiomeric forms of fluoxetine” (Bioorg Med Chem Lett, 1993).

Experiment: Tested in vitro for inhibition of Serotonin uptake
Format: functional

`CNCCC(Oc1ccc(C(F)(F)F)cc1)c1ccccc1` (configuration not stated) showed an Activity of 700 nM.

Molecule `FC(F)(F)c1ccc(OC2(c3ccccc3)CCNCC2)cc1` has an Activity of 580 nM.
